Assay: hydrolysis of the compound into its active (dissolved in water, followed by NMR)

CN(C)CCc1c[nH]c2cccc(OP(=O)(O)O)c12 [Psilocybin]
half-life: < 365 days

From patent publication US20230241027A1, “DIALKYL T[…] THEIR […] USES” (CAAMTECH, INC., priority 2020, published 2023)
